# Test results from ChEMBL document CHEMBL5325418, “Studies on diketopiperazine and dipeptide analogs as opioid receptor ligands” (Eur J Med Chem, 2023).
# The source made the active and inactive calls. The rule behind the calls is not given here. Square brackets hold non-standard residues; d marks the D form. Peptide text beside a SMILES is read from it. * marks the point of attachment. ξ: configuration not given here. ξPhe(3-OMe) = COc1cccc(CC(N)C(=O)O)c1; Nphe = O=C(O)CNCc1ccccc1; Boc = CC(C)(C)OC(=O)*
# Key:
# [1] = biological target: Kappa-type opioid receptor (Homo sapiens, UniProt P41145); test: Displacement of [3H]U69593 from human KOR expressed in HEK cell membranes assessed as inhibition constant incubated for 60 mins by microbeta 2 scintillation counting method; design: species or system Cell membrane
# [2] = biological target: Delta-type opioid receptor (Homo sapiens, UniProt P41143); test: Displacement of [3H]DADLE from human DOR expressed in CHO cell membranes assessed as inhibition constant incubated for 60 mins by microbeta 2 scintillation counting method; design: species or system Cell membrane
# Mu-type opioid receptor = Mu-type opioid receptor (Homo sapiens, UniProt P35372); test: Displacement of [3H]DAMGO from human MOR expressed in CHO cell membranes assessed as inhibition constant incubated for 60 mins by microbeta 2 scintillation counting method; design: species or system Cell membrane
# [3] = Metabolic stability in CD-1 mouse plasma assessed as half life at 100 uM measured upto 24 hrs by LC-MS/MS analysis; format: ADME, cell-free
# Homo sapiens [4] = species on record: Homo sapiens; test: Selectivity ratio of Ki for displacement of [3H]DAMGO from human MOR expressed in CHO cell membranes to Ki for displacement of [3H]U69593 from human KOR expressed in HEK cell membranes
# [5] = Plasma protein binding in human assessed as bound fraction at 1 uM by LC-MS/MS analysis; format: ADME, cell-free
# [6] = Plasma protein binding in mouse assessed as bound fraction at 1 uM by LC-MS/MS analysis; format: ADME, cell-free
# [7] = Metabolic stability in Beagle dog plasma assessed as half life at 100 uM measured upto 24 hrs by LC-MS/MS analysis; format: ADME, cell-free, Canis lupus familiaris; settings: for half-life at 100 µM: Beagle; for t1/2: 24 h, 100 µM
# BEND3 = test: Apparent permeability coefficient of the compound across blood brain barrier in mouse BEND3 cells at 10 ug/ml measured upto 120 mins by LC-MS/MS analysis; format: functional, cell-based; settings: dose 10.0 µg/ml
# [8] = Metabolic stability in human plasma assessed as half life at 100 uM measured upto 24 hrs by LC-MS/MS analysis; format: ADME, cell-free; settings: for t1/2: 24 h, 100 µM
# [9] = Plasma protein binding in rat assessed as bound fraction at 1 uM by LC-MS/MS analysis; format: ADME, cell-free
# [10] = Metabolic stability in Sprague-Dawley rat liver microsomes assessed as intrinsic clearance at 100 uM measured upto 24 hrs in presence of NADPH by LC-MS/MS analysis; format: ADME, Microsome
# Homo sapiens [11] = species on record: Homo sapiens; test: Selectivity ratio of Ki for displacement of [3H]DADLE from human DOR expressed in CHO cell membranes to Ki for displacement of [3H]U69593 from human KOR expressed in HEK cell membranes
# [12] = Plasma protein binding in dog assessed as bound fraction at 1 uM by LC-MS/MS analysis; format: ADME, cell-free, Canis lupus familiaris
# [13] = Metabolic stability in Sprague-Dawley rat plasma assessed as half life at 100 uM measured upto 24 hrs by LC-MS/MS analysis; format: ADME, cell-free
# [14] = In vivo inhibition of U50488-induced activation of KOR in C57BL/6 mouse assessed as reduction of occupancy on cold plate at 1 mg/kg, ip pre-treated with U50488 followed compound addition measured after 1 hr by TPPT assay (reference value: 67.28 +/- 10.8% ); format: functional
# Rattus norvegicus [15] = test: Antiallodynic activity against spinal nerve ligation neuropathic pain rat model assessed as reduction in mechanical hypersensitivity at 3 mg/kg, ip measured at 1 hr by von frey test; format: functional, organism-based
# Rattus norvegicus [16] = test: Effect on emotional-affective response in spinal nerve ligation neuropathic pain rat model assessed as reduction in ultrasonic vocalizations at 3 mg/kg, ip measured at 1 hr by preamplifier based analysis; format: functional, organism-based
# Rattus norvegicus [17] = test: Effect on emotional-affective response in spinal nerve ligation neuropathic pain rat model assessed as reduction in audible vocalizations at 3 mg/kg, ip measured at 1 hr by preamplifier based analysis; format: functional, organism-based
# Sequence of Delta-type opioid receptor (P41143 whole entry): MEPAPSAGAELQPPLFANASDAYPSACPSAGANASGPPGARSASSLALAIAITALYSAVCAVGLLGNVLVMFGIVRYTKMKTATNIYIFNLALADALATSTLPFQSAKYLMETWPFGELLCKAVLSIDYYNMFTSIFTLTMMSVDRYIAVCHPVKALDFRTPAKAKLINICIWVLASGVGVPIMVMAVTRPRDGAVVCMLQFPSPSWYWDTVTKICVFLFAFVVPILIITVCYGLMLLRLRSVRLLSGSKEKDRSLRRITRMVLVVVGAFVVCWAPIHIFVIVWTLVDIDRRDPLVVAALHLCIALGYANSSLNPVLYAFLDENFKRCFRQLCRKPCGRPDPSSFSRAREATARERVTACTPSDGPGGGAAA
# Sequence of Mu-type opioid receptor (P35372 whole entry): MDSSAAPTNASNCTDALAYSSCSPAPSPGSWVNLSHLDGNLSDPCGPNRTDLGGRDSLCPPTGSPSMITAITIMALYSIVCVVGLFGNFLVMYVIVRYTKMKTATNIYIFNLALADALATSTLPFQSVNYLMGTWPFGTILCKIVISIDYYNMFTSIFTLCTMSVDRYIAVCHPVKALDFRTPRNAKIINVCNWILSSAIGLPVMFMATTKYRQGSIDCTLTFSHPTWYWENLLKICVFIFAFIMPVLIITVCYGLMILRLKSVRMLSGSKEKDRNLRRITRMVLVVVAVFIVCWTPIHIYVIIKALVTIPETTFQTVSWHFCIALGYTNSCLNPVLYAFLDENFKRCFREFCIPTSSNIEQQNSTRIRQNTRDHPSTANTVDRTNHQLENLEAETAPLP
# Sequence of Kappa-type opioid receptor (P41145 whole entry): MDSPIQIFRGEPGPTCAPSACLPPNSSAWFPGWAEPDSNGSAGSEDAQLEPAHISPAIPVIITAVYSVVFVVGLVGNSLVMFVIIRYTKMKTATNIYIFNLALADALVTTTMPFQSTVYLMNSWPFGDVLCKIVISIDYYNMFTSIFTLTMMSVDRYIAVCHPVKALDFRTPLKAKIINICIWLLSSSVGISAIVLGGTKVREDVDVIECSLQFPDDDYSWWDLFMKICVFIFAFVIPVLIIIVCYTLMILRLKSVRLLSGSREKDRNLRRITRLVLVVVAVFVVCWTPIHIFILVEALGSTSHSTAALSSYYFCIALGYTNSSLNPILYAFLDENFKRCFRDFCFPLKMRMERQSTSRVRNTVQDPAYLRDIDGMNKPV
compound,measurement,setting,value
COC(=O)C(Cc1cc(OC)cc(OC)c1I)NC(=O)CNCc1ccccc1 (stereo unspecified),Ki,[1],> 10 µM
same,Ki,[2],> 10 µM
same,Ki,Mu-type opioid receptor,> 10 µM
COc1cc(CC2NC(=O)CN(Cc3ccccc3)C2=O)c(I)c(OC)c1 (stereo unspecified),half-life at 100 µM,[3],> 24 h
same,Ki,[1],0.51 µM
same,Ratio Ki,Homo sapiens [4],> 20
same,PPB,[5],95.95%
same,Ki,[2],> 10 µM
same,PPB,[6],91.69%
same,half-life at 100 µM,[7],> 24 h
same,Pe,BEND3,9.68 10^-3cm/min
same,half-life at 100 µM,[8],> 24 h
same,Ki,Mu-type opioid receptor,> 10 µM
same,PPB,[9],93.99%
same,Intrinsic clearance,[10],390.5 µL/min/mg
same,Ratio Ki,Homo sapiens [11],> 20
same,PPB,[12],89.68%
same,half-life at 100 µM,[13],> 24 h
COc1cccc(CC(NC(=O)CNCc2ccccc2)C(=O)O)c1I (stereo unspecified),Ki,[1],> 10 µM
same,Ki,[2],> 10 µM
same,Ki,Mu-type opioid receptor,> 10 µM
COC(=O)C(Cc1cccc(C)c1I)NC(=O)CNCc1ccccc1 (stereo unspecified),half-life at 100 µM,[3],< 0.0167 h
same,Ki,[1],0.123 µM
same,Ratio Ki,Homo sapiens [4],> 81
same,PPB,[5],97.86%
same,Ki,[2],> 10 µM
same,t1/2,[7],3.8202 h
same,Pe,BEND3,21.5 10^-3cm/min
same,t1/2,[8],2.4577 h
same,Ki,Mu-type opioid receptor,> 10 µM
same,Intrinsic clearance,[10],1889 µL/min/mg
same,Ratio Ki,Homo sapiens [11],> 81
same,half-life at 100 µM,[13],< 0.0167 h
COC(=O)C(Cc1cccc(OC)c1I)NC(=O)CCCc1ccccc1 (stereo unspecified),Ki,[1],> 10 µM
same,Ki,[2],> 10 µM
same,Ki,Mu-type opioid receptor,> 10 µM
COC(=O)C(Cc1cccc(OC)c1I)NC(=O)CN(Cc1ccccc1)C(C)=O (stereo unspecified),Ki,[1],> 10 µM
same,Ki,[2],> 10 µM
same,Ki,Mu-type opioid receptor,> 10 µM
COC(=O)C(Cc1cccc(OC)c1I)NC(=O)CN(C)Cc1ccccc1 (stereo unspecified),Ki,[1],0.256 µM
same,Ratio Ki,Homo sapiens [4],> 40
same,Ki,[2],> 10 µM
same,Ki,Mu-type opioid receptor,> 10 µM
same,Ratio Ki,Homo sapiens [11],> 40
COc1cccc(CC2NC(=O)[C@H](Cc3ccccc3)NC2=O)c1I (stereo partly specified),Ki,[1],> 10 µM
same,Ki,[2],> 10 µM
same,Ki,Mu-type opioid receptor,> 10 µM
COC(=O)C(Cc1cccc(OC)c1I)NC(=O)CN(Cc1ccccc1)C(=O)OC(C)(C)C (stereo unspecified),Ki,[1],> 10 µM
same,Ki,[2],> 10 µM
same,Ki,Mu-type opioid receptor,> 10 µM
COc1cccc(CC2NC(=O)CN(CCc3ccccc3)C2=O)c1I (stereo unspecified),Ki,[1],5.11 µM
same,Ratio Ki,Homo sapiens [4],> 1.9
same,Ki,[2],> 10 µM
same,Ki,Mu-type opioid receptor,> 10 µM
same,Ratio Ki,Homo sapiens [11],> 1.9
COc1cccc(CC2NC(=O)[C@H](CC(C)C)NC2=O)c1I (stereo partly specified),Ki,[1],> 10 µM
same,Ki,[2],> 10 µM
same,Ki,Mu-type opioid receptor,> 10 µM
COc1cccc(CC2NC(=O)CNC2=O)c1I (stereo unspecified),Ki,[1],> 10 µM
same,Ki,[2],> 10 µM
same,Ki,Mu-type opioid receptor,> 10 µM
O=C1OC2(c3ccc(O)cc3Oc3cc(O)ccc32)c2ccccc21,Pe,BEND3,0.95 10^-3cm/min
CNCC(=O)NC(Cc1cccc(OC)c1I)C(=O)OC (stereo unspecified),Ki,[1],> 10 µM
same,Ki,[2],> 10 µM
same,Ki,Mu-type opioid receptor,> 10 µM
COC(=O)C(Cc1cccc(OC)c1I)NC(=O)CNCc1ccccc1 (stereo unspecified),half-life at 100 µM,[3],< 0.0167 h
same,Ki,[1],0.277 µM
same,Ratio Ki,Homo sapiens [4],> 36
same,PPB,[5],90.8%
same,Ki,[2],> 10 µM
same,t1/2,[7],3.6808 h
same,Pe,BEND3,8.75 10^-3cm/min
same,t1/2,[8],2.1762 h
same,Ki,Mu-type opioid receptor,> 10 µM
same,Intrinsic clearance,[10],1928 µL/min/mg
same,Ratio Ki,Homo sapiens [11],> 36
same,PPB,[12],97.09%
same,half-life at 100 µM,[13],< 0.0167 h
COc1cccc(CC2NC(=O)CN(Cc3ccccc3)C2=O)c1I (stereo unspecified),inhibition in vivo at 1 mg/kg,[14],10.3%
same,half-life at 100 µM,[3],> 24 h
same,Activity,Rattus norvegicus [15],Active
same,Ki,[1],0.924 µM
same,Activity,Rattus norvegicus [16],Active
same,Ratio Ki,Homo sapiens [4],> 11
same,PPB,[5],91.42%
same,Ki,[2],> 10 µM
same,PPB,[6],85.15%
same,half-life at 100 µM,[7],> 24 h
same,Pe,BEND3,5.07 10^-3cm/min
same,half-life at 100 µM,[8],> 24 h
same,Ki,Mu-type opioid receptor,> 10 µM
same,PPB,[9],91.24%
same,Intrinsic clearance,[10],381.8 µL/min/mg
same,Ratio Ki,Homo sapiens [11],> 11
same,Activity,Rattus norvegicus [17],Active
same,PPB,[12],86.15%
same,half-life at 100 µM,[13],> 24 h
COc1cccc(CC2NC(=O)CN(Cc3ccccc3)C2=O)c1 (stereo unspecified),Ki,[1],> 10 µM
same,Ki,[2],> 10 µM
same,Ki,Mu-type opioid receptor,> 10 µM
COc1cccc(CC(NC(=O)CNCc2ccccc2)C(=O)OC(C)C)c1I (stereo unspecified),Ki,[1],1.44 µM
same,Ratio Ki,Homo sapiens [4],> 7
same,Ki,[2],> 10 µM
same,Ki,Mu-type opioid receptor,> 10 µM
same,Ratio Ki,Homo sapiens [11],> 7
COc1cccc(CC2NC(=O)CN(Cc3cccnc3)C2=O)c1I (stereo unspecified),Ki,[1],> 10 µM
same,Ki,[2],> 10 µM
same,Ki,Mu-type opioid receptor,> 10 µM
COC(=O)C(Cc1cccc(OC)c1)NC(=O)CN(Cc1ccccc1)C(=O)OC(C)(C)C (stereo unspecified) (Boc-[Nphe]-[ξPhe(3-OMe)]-OMe),Ki,[1],> 10 µM
same,Ki,[2],> 10 µM
same,Ki,Mu-type opioid receptor,> 10 µM
